The results in this text go back to patent US9598431B1, “Compounds useful for inhibiting ROR-gamma-t” (Eli Lilly and Company, priority 2015, dated 2017).

Assay [1] has as its system IL-17 secretion in PBMC. Description: PBMC IL-17 secretion ELISA. Format: cell-based. Conditions: anti-CD3/anti-CD28/IL-23 stimulated human PBMC, mean ± SEM, read-out: hPBMC IL-17 ELISA. As to the method:
Following the incubation period the plates are spun at 200×g for five minutes. Supernatants are diluted 1:1 with equal volume 1% BSA/PBS and tested for IL-17 with a human IL-17 ELISA kit from R&D system (catalog #D317E) according to the protocol provided with the kit with one exception—the colorimetric substrate OPD (o-phenylenediamine dihydrochloride, Sigma Cat #P6912) is used instead of the substrate supplied in the kit. Absorbance at 492 nm is measured with the Envision multi-label plate reader. A492 values are converted to concentration of IL-17 based on the IL-17 standard curve as shown below:
pg/mL IL-17=EC50*[[(Top−Bottom)/(A492−Bottom)]−1](1/−Hill). IC50's for inhibition of IL-17 secretion is calculated based on converted values using a standard 4-parameter fit with maximum inhibition determined from the average values of wells with no added stimulants nor compounds and minimum inhibition from the average values of wells with stimulants alone and no added compound.
For orientation: ELISA stands for enzyme-linked immunosorbent assay.

In assay [2] the test system is GPI induced arthritis in DBA/1 mice. Description: Glucose-6-phosphate isomerase (GPI) induced arthritis model. It is filed as in vivo, mouse. The note with it: male DBA/1 mice, 1000 mg/Kg orally once daily. As to the method: The GPI induced arthritis model is adapted from K. Iwanami et al Arthritis Rheumatism 58, 754-763, 2008 and D. Schubert et al. J Immunology 172, 4503-4509, 2004. Mice (8-9 week old male DBA/1 mice) (Harlan) are randomly assigned into treatment groups based on body weights collected on the day of immunization (day 0). On the day of immunization (day 0), a 1:1 (v:v) mixture of recombinant human GPI (diluted to 4 mg/mL in PBS, Gibco) and complete Freund's adjuvant (CFA, Sigma) is mixed on a high speed homogenizer (Omni) for 40 minutes in a cold room. A final concentration of 2 mg/mL GPI is achieved in the emulsion. Mice are injected at the base of the tail (2 sites of injection, subcutaneously, 100 μL each site) with the GPI emulsion. Test compounds are dosed orally starting on the same day as immunization (day 0). Starting on day 0, each paw is scored for severity of joint swelling based on a 0 to 3 scoring system (See K. Iwanami et al Arthritis Rheumatism 58, 754-763, 2008. The clinical score represents the total score of all 4 paws (maximum score=12). Clinical scores are assessed on days 0, 2, 4, 7, 8, 9, 10, 11, 12, 14, 16, 18, and 21.
The AUC is calculated by a trapezoid method for clinical score over time from the day of immunization (day 0) to day 21. Test p-values were derived from Student's t-test.

SMILES strings stand for the structures. Read-outs that look alike come from different tables or passages of the source.

As for `CCS(=O)(=O)c1ccc(CNC(=O)c2cc3c(s2)C2(CCN([C@@H](C)c4cnc(C(F)(F)F)nc4)CC2)O[C@@H](C)C3)nc1` [Example 2, (5S′)—N-{[5-(Ethylsulfonyl)pyridine-2-yl]methyl}-5′-methyl-1-{(1S)-1-[2-(trifluoromethyl)pyrimidin-5-yl]ethyl}-4′,5′-dihydrospiro[piperidine-4,7′thieno[2,3-C]pyran]-2′-carboxamide], the IC50 in assay [1] (Homo sapiens, PBMC, 48 h) came to 33.7 ± 33.1 nM. In the case of `CCS(=O)(=O)c1ccc(CNC(=O)c2cc3c(s2)C2(CCN(C(C)c4cnc(C(F)(F)F)nc4)CC2)OC(C)C3)nc1` (centres unmarked) [Example 1, N-{[5-(Ethylsulfonyl)pyridine-2-yl]methyl}-5′-methyl-1-{1-[2-(trifluoromethyl)pyrimidin-5-yl]ethyl}-4′,5′-dihydrospiro[piperidine-4,7′thieno[2,3-C]pyran]-2′-carboxamide], the IC50 in assay [1] (Homo sapiens, PBMC, 48 h) is 77.3 nM. `CCS(=O)(=O)c1ccc(CNC(=O)c2cc3c(s2)C2(CCN([C@H](C)c4cnc(C(F)(F)F)nc4)CC2)O[C@@H](C)C3)nc1` [Example 3, (5S′)—N-{[5-(Ethylsulfonyl)pyridine-2-yl]methyl}-5′-methyl-1-{(1R)-1-[2-(trifluoromethyl)pyrimidin-5-yl]ethyl}-4′,5′-dihydrospiro[piperidine-4,7′thieno[2,3-C]pyran]-2′-carboxamide]: the IC50 in assay [1] (Homo sapiens, PBMC, 48 h) worked out at 20 ± 12.6 nM. Moreover, the “severity of paw swelling and mean clinical scores” value in assay [2] (compared to the vehicle group) is “reduces severity of paw swelling and maintains lower mean clinical scores”. The “reduction in clinical score AUC” value in assay [2] (day 0 to day 21, compared to the vehicle group) is given as 75%. Moreover, in assay [2] (day 0 to day 21, n=8/group), the “Clinical Score AUC (mean ± SEM)” value stood at 22.20 ± 8.68.

Turning to `CCS(=O)(=O)c1ccc(CNC(=O)c2cc3c(s2)C2(CCN(C(C)c4cnc(C(F)(F)F)nc4)CC2)O[C@H](C)C3)nc1` (single isomer, unassigned; isomer 2) [Example 5, (5R′)—N-{[5-(Ethylsulfonyl)pyridine-2-yl]methyl}-5′-methyl-1-{1-[2-(trifluoromethyl)pyrimidin-5-yl]ethyl}-4′,5′-dihydrospiro[piperidine-4,7′thieno[2,3-C]pyran]-2′-carboxamide isomer 2], in assay [1] (48 hours), the IC50 was found to be 30.5 ± 29.3 nM. Same read-out and setting: to `CCS(=O)(=O)c1ccc(CNC(=O)c2cc3c(s2)C2(CCN(C(C)c4cnc(C(F)(F)F)nc4)CC2)O[C@H](C)C3)nc1` (single isomer, unassigned; isomer 1) [Example 4, (5R′)—N-{[5-(Ethylsulfonyl)pyridine-2-yl]methyl}-5′-methyl-1-{1-[2-(trifluoromethyl)pyrimidin-5-yl]ethyl}-4′,5′-dihydrospiro[piperidine-4,7′thieno[2,3-C]pyran]-2′-carboxamide isomer 1] belongs 106 nM.
